This note sets out measurements from US11013224B2, “Substance and composition for veterinary purpose” (priority 2016, dated 2021).

Data set [1] relates to hoof. As for the experimental part: Routine equine intravenous fluid therapy was carried out twice per week for 4 weeks. Standard blood analysis was carried out on Abbott i-STAT systems, Abbott Architect ci8200 and Architect Celldyn CD3700 before and after treatment. Micro-circulation was measured during treatment using PeriFlux System 5000. Hoof quality and growth were determined as described above.

Data set [2] concerns hoof. The data set can be described thus: Application of cromoglycate using inhalation in horses. The class given is in vivo. As for the experimental part:
Gas mix system and the Air-ONE nebuliser were prepared and operated as per manufacturer's instructions. […] Treatment was continued until all 70 ml had been inhaled (between 20 to 30 minutes). Horses were treated at 2 day intervals for at least 1 and up to 3 weeks. […] Micro-circulation was measured during inhalation using PeriFlux System 5000. Hoof quality and growth were determined as described above.

Data set [3] relates to hoof. The data set can be described thus: Application of cromoglycate using limb perfusion in healthy horses. The data set is classed as in vivo. The method, then:
Standard blood analysis was carried out before and after treatment. Hoof quality and growth were determined over a period of time as described above.

[4] abbreviates: limb perfusion, 35 ml of 71 g/L per front limb.

Like-named read-outs stand apart in the source and are kept apart here.

With `O=C(O)c1cc(=O)c2c(OCC(O)COc3cccc4oc(C(=O)O)cc(=O)c34)cccc2o1` [sodium cromoglycate], the “Hoof growth and hoof quality” value was “increases hoof growth and improves hoof quality” in data set [1] (intravenous fluid); “increases hoof growth and improves hoof quality” in data set [2] (inhalation); “increases hoof growth and improves hoof quality” in data set [3] (limb perfusion). The “Digestion, coat and hoof quality” value in data set [1] (intravenous fluid infusion) and in data set [2] (inhalation) was “improves” in each case. Besides, the Calcium upon treatment result in data set [1] (intravenous fluid therapy) and in data set [2] (inhalation) was “effected” each time. In addition, in data set [2] (70 ml of 70 g/l per horse by nebuliser, 2 day intervals, 1 to 3 weeks), the “Tolerability of repeated inhalation” value is listed as “well tolerated”. Further, the Micro-circulation result in data set [2] (measured during inhalation, PeriFlux System 5000) is “activates”. Further, the “Heart rate, temperature and gut sounds” value in data set [3] (24 h after injection) was “normal”. Besides, in data set [3] (setting [4]), the “Ionized calcium, pre vs post treatment blood data” value is reported as “a change”. For the same compound, the “Potassium, pre vs post treatment blood data” value in data set [3] (setting [4]) was “a reduction”.
